Data reported in US5763212A, “Inhibiting degradation of a degron-bearing protein” (California Institute of Technology, priority 1995, dated 1998).
Residues, ends and D or L forms follow the SMILES beside them.

System: Arg-e^K-DHFRha (mouse dihydrofolate reductase with e^K extension and ha epitope, from Ub-Arg-e^K-DHFRha)
Experiment: Degradation of 35S-labeled N-end rule substrate in ATP-supplemented reticulocyte extract (acid-soluble 35S, SDS-PAGE)
Assay type: biochemical
Conditions: for inhibition of Arg-e^K-DHFRha degradation: FIG. 3A

| SMILES | inhibition of Arg-e^K-DHFRha degradation (1 mM Arg-Ala dipeptide, reticulocyte extract) | effect on ubiquitination of Arg-e^K-DHFRha (1 mM Arg-Ala dipeptide, reticulocyte extract, SDS-PAGE) | inhibition of Arg-e^K-DHFRha degradation (20 μM methotrexate, ATP-supplemented reticulocyte extract, 37° C.) | effect on multiubiquitination of Arg-e^K-DHFRha (20 μM methotrexate, ATP-supplemented reticulocyte extract, SDS-PAGE) |
| --- | --- | --- | --- | --- |
| C[C@H](NC(=O)[C@@H](N)CCCNC(=N)N)C(=O)O [Arg-Ala] (H-Arg-Ala-OH) | almost completely inhibited | inhibited | – | – |
| CN(Cc1cnc2nc(N)nc(N)c2n1)c1ccc(C(=O)N[C@@H](CCC(=O)O)C(=O)O)cc1 [methotrexate] | – | – | nearly complete inhibition | enhanced |
